Tests used:
[1] = test system: blood plasma of rats; assay: Concentration of dopamine, its metabolites, 5-HT and 5-HIAA in the blood plasma of benserazide-pretreated rats; type: in vivo, rat; conditions: for 3-MT concentration in blood plasma (MV) / 5-HIAA concentration in blood plasma (MV) / 5-HT concentration in blood plasma (MV) / Dopac concentration in blood plasma (MV) / Dopamine concentration in blood plasma (MV) / HVA concentration in blood plasma (MV): 30 min after benserazide, blood 90 min later
Protocol: (§1) The rats were pretreated with benserazide, an inhibitor of the aromatic amino acid decarboxylase, in order to reduce the degradation of the test compounds in the blood and to thus provide sufficient concentration of dopamine and α-lipoic acid in the brain. After 30 minutes, L-DOPA (standard therapy for Parkinson's disease) or compound 1, compound 2, compound 3 in doses equivalent to L-DOPA were injected into the peritoneum (intraperitoneal, ip). After a further 90 minutes, blood and brain tissue (striatum) were extracted. A lower dose (25 mg/kg body weight) and a higher dose (50 mg/kg body weight) of L-DOPA were selected.

[2] = test system: nucleus accumbens of a freely moving rat; assay: In vivo microdialysis of dopamine release in the nucleus accumbens of the freely moving rat
Protocol: The arrow indicates the moment of injection (ip: intraperitoneal) of L-DOPA (25 mg/kg body weight) 30 minutes after the administration of benserazide (10 mg/kg body weight, ip).
The arrow indicates the moment of injection (ip: intraperitoneal) of L-DOPA (50 mg/kg body weight) 30 minutes after the administration of benserazide (10 mg/kg body weight, ip, in 0.9% NaCl).
The arrow indicates the moment of injection (ip: intraperitoneal) of diacetyl-DOPA-ethylene glycol α-lipoic acid (equimolar dose to 25 mg/kg body weight L-DOPA) 30 minutes after the administration of benserazide (10 mg/kg body weight, ip in 0.9% NaCl).
The arrow indicates the moment of injection (ip: intraperitoneal) of diacetyl-DOPA-ethylene glycol α-lipoic acid (equimolar dose to 50 mg/kg body weight L-DOPA) 30 minutes after the administration of benserazide (10 mg/kg body weight, ip).
Furthermore, by the method of in vivo micro dialysis of the conscious and freely moving rat, experiments were carried out to test whether the production and release of dopamine in the nucleus accumbens, a part of the brain with dense innervation of dopamine-containing nerve cells, is increased upon administration of L-DOPA or compound 1. The advantage of said method consists in the fact that the time-course of the release of the messenger dopamine from the active nerve cells can be observed in the conscious and freely moving rat. […] Said strong increase and the high concentrations are not desired since several degradation products of dopamine and the oxygen radicals formed during the degradation of dopamine have damaging effects on nerve cells.

[3] = test system: brain (striatum) of the rat; assay: Concentration of dopamine, its metabolites, 5-HT and 5-HIAA in the striatum of benserazide-pretreated rats; type: in vivo; conditions: for 3-MT concentration in striatum (MV) / 5-HIAA concentration in striatum (MV) / 5-HT concentration in striatum (MV) / Dopac concentration in striatum (MV) / Dopamine concentration in striatum (MV) / HVA concentration in striatum (MV): 30 min after benserazide, tissue 90 min later
Protocol: as §1

[4] = 25 mg/kg L-DOPA or L-DOPA eq. ip
[5] = 50 mg/kg L-DOPA or L-DOPA eq. ip
[6] = low doses (25 mg/kg L-DOPA eq.)

CC(=O)Oc1ccc(C[C@H](N)C(=O)OCCOC(=O)CCCCC2CCSS2)cc1OC(C)=O (stereo partly drawn) [compound 1, O,O′-diacetyl-L-DOPA-ethylene glycol lipoic acid ester]
3-MT concentration in blood plasma (MV) [1, 4]: 8563 pg per ml plasma
5-HIAA concentration in blood plasma (MV) [1, 4]: 13852 pg per ml plasma
5-HT concentration in blood plasma (MV) [1, 4]: 8894 pg per ml plasma
Dopac concentration in blood plasma (MV) [1, 4]: 57257 pg per ml plasma
Dopamine concentration in blood plasma (MV) [1, 4]: 29782 pg per ml plasma
HVA concentration in blood plasma (MV) [1, 4]: 16836 pg per ml plasma
3-MT concentration in blood plasma (MV) [1, 5]: 6288 pg per ml plasma
5-HIAA concentration in blood plasma (MV) [1, 5]: 15367 pg per ml plasma
5-HT concentration in blood plasma (MV) [1, 5]: 12094 pg per ml plasma
Dopac concentration in blood plasma (MV) [1, 5]: 58266 pg per ml plasma
Dopamine concentration in blood plasma (MV) [1, 5]: 22129 pg per ml plasma
HVA concentration in blood plasma (MV) [1, 5]: 71658 pg per ml plasma
Formation of dopamine in the blood plasma (in words) ([1]; low and higher doses): Dopamine is also formed
Dose dependence of dopamine release in nucleus accumbens (in words) ([2]; 25 and 50 mg/kg L-DOPA or equimolar doses, FIGS. 1-4): released in a dose-dependent manner
Time-course of dopamine concentration in nucleus accumbens microdialysate (in words) ([2]; ip, 30 min after benserazide, L-DOPA: higher dose (FIG. 1), compound 1: FIGS. 3 and 4): two-peak-maximum and a less steep increase as well as a longer lasting effect
3-MT concentration in striatum (MV) [3, 4]: 308 pg per mg striatum
5-HIAA concentration in striatum (MV) [3, 4]: 706 pg per mg striatum
5-HT concentration in striatum (MV) [3, 4]: 355 pg per mg striatum
Dopac concentration in striatum (MV) [3, 4]: 4532 pg per mg striatum
Dopamine concentration in striatum (MV) [3, 4]: 11244 pg per mg striatum
HVA concentration in striatum (MV) [3, 4]: 2567 pg per mg striatum
3-MT concentration in striatum (MV) [3, 5]: 194 pg per mg striatum
5-HIAA concentration in striatum (MV) [3, 5]: 764 pg per mg striatum
5-HT concentration in striatum (MV) [3, 5]: 411 pg per mg striatum
Dopac concentration in striatum (MV) [3, 5]: 9549 pg per mg striatum
Dopamine concentration in striatum (MV) [3, 5]: 11695 pg per mg striatum
HVA concentration in striatum (MV) [3, 5]: 4314 pg per mg striatum
Effect on the metabolites DOPAC and HVA in striatum (in words) ([3]; higher doses (50 mg/kg L-DOPA eq.)): increased
Effect on the concentrations of dopamine in striatum (in words) [3, 6]: do not lead to an increase
Effect on the metabolites DOPAC and HVA in striatum (in words) [3, 6]: increased

From US20090285888A1, “DERIVATIVES OF DIHYDROXYPHENYLALANINE” (priority 2006, published 2009)
